Reference: paper PMC8575619, “Cytotoxic and Antifungal Amides Derived from Ferulic Acid: Molecular Docking and Mechanism of Action” (BioMed Research International, 2021)
In brackets after ≈: the same amount, converted by molar mass. Several values for one entry are separate records, joined by “and”; a condition that tells them apart may be missing. Equal entries are not always repeated. Where two headings read alike, the source gives them in different places.

How the values were obtained:
[1] = system: HL-60; assay: Cytotoxicity assay, alamar blue test; format: cell-based, human; settings: value (95% confidence interval); for IC50: read-out: IC50 HL60
Description: (§1) HepG2 cells (human hepatocellular carcinoma), HCT116 (human colon carcinoma), HL-60 (human promyelocytic leukemia), and MRC5 (human lung fibroblast) obtained from the ATCC (Manassas, VA, USA) were used. Cells were cultured in cell culture bottles (75 cm 3, 250 mL volume), and media used were RPMI 1640 and supplemented with 10% fetal bovine serum. Cells were maintained in incubators with 5% CO2 atmosphere at 37°C. Cellular growth was monitored daily with the use of an inversion microscope. The medium was changed whenever cell growth reached the necessary confluence for nutrient renewal. For the maintenance of adhered cells, trypsin (0.25%) was used for the cells to detach from the walls of the bottles.
(§2) To assess the cytotoxicity of the substances, the alamar blue test was performed after 72 h of exposure with the test substances. Alamar blue, known as resazurin [62], is a fluorescent/colorimetric indicator with redox properties. The reduction in alamar blue reflects cell proliferation. This was initially used to indicate cell growth and/or viability in monitoring lymphocyte proliferation and currently has several applications. Initially, cells were plated in 96-well plates (100 μL/well of a solution of 0.3 × 10^6 cells/mL for cells in suspension and 0.7 × 10^5 cells/mL for adhered cells). After 24 h of incubation, the test substances dissolved in DMSO were added to each well and incubated for 72 h. Doxorubicin was used as a positive control. The negative control received the same amount of DMSO. Four hours before the end of the incubation period, 20 μL of the stock solution (0.312 mg/mL) of alamar blue (resazurin) was added to each well. Absorbances were measured at wavelengths of 570 nm (reduced) and 600 nm (oxidized) using a plate reader.

[2] = system: HCT116; assay: Cytotoxicity assay, alamar blue test; format: cell-based, human; settings: value (95% confidence interval)
Description: as §1, §2

[3] = system: HepG2 cells; assay: Cytotoxicity assay, alamar blue test; format: cell-based, human; settings: value (95% confidence interval)
Description: as §1, §2

[4] = system: MRC5; assay: Cytotoxicity assay, alamar blue test (healthy cell line); format: cell-based, human; settings: value (95% confidence interval)
Description: as §1, §2

[5] = system: Candida albicans CBS 562; assay: Minimum fungicide concentration (MFC); format: cell-based; settings: ≥ 4 fungistatic or <4 fungicide
Description: (§3) Antifungal activity evaluations were performed using references strains of Candida spp., obtained from the Centraalbureau voor Schimmelcultures (CBS, Ultrecht, Netherlands): Candida albicans CBS 562, Candida tropicalis CBS 94, and Candida krusei CBS 573. Nystatin, Tween 80%, DMSO, caspofungin diacetate, and ergosterol were obtained from Sigma-Aldrich® (St. Louis, MO, EUA) and sorbitol (D-sorbitol anhydrous) from INLAB® (São Paulo, Brazil). All assays were performed in triplicate in three independent experiments. The culture medium used for maintenance of the microorganisms was Agar Sabouraud Dextrose (ASD). Inoculants were adjusted to a final concentration of 2.5 × 10^3 CFU/mL (Clinical and Laboratory Standards Institute, 2002). […]
(§4) The minimum fungicide concentration (MFC) of the compounds was obtained after the interpretation of the MIC. Three (3) aliquots of 30 μL of supernatant were removed from the wells (where complete inhibition of fungal growth was analyzed) and placed in Petri dishes containing 15 mL of agar Sabouraud dextrose. The plates were incubated at 35 ± 2°C for 24 h for visual counting of colony forming units. To determine whether the compounds had fungistatic (MFC/MIC ≥ 4) or fungicidal (MFC/MIC < 4) activity, the MFC/MIC ratio was calculated.

[6] = system: Candida krusei CBS 573; assay: Minimum fungicide concentration (MFC); format: cell-based; settings: ≥ 4 fungistatic or <4 fungicide
Description: as §3, §4

[7] = system: Candida strains (Candida albicans, C. tropicalis, and C. krusei); assay: Antifungal evaluation (MIC/MFC), statements for all Candida strains; format: cell-based, Candida spp.
Description: The antifungal activity (Table 2) of the ten amides was assessed via the minimum inhibitory concentration (MIC) which was determined using the microdilution methods against three species of Candida strains (Candida albicans, C. tropicalis, and C. krusei).
as §3
MIC was determined by the microdilution technique, as previously described by the adapted Clinical and Laboratory Standards Institute (CLSI, 2002) method. The compounds were subjected to the microdilution technique in 96-well plates, with U bottom. The samples were dissolved with DMSO and sterile distilled water (up to 1.0 mL). Through serial dilutions, concentrations of the evaluated compounds ranging from 1000 μg/mL to 7.8 μg/mL. The culture sterility medium, the evaluated substances, and the microbial growth were carried out in parallel. The plates were closed and subjected to a temperature of 35 ± 2°C for 24 h. 1% TTC (2,3,5-triphenyl tetrazolium chloride, Sigma-Aldrich®, St. Louis, MO, EUA) was added to each well to confirm the presence of viable microorganisms. MIC was defined as the lowest concentration of the test substance that inhibits visible microbial growth.
The minimum fungicide concentration (MFC) of the compounds was obtained after the interpretation of the MIC. Three (3) aliquots of 30 μL of supernatant were removed from the wells (where complete inhibition of fungal growth was analyzed) and placed in Petri dishes containing 15 mL of agar Sabouraud dextrose. The plates were incubated at 35 ± 2°C for 24 h for visual counting of colony forming units.

[8] = system: Candida tropicalis CBS 94; assay: Minimum fungicide concentration (MFC); format: cell-based; settings: ≥ 4 fungistatic or <4 fungicide
Description: as §3, §4

[9] = system: C. albicans CBS 562; assay: Sorbitol assay (cell wall mechanism), microdilution; format: cell-based, Candida albicans; settings: for MIC: Candida albicans
Description: (1) Sorbitol Assay. The microdilution technique was performed in the presence of sorbitol (D-sorbitol, anhydrous) (INLAB laboratory), to determine the mode of action of the compounds on the cell wall of C. albicans CBS 562. For this test, the inoculum was prepared with sorbitol to a final concentration of 0.8 M. The plates were incubated at 35 ± 2°C, and readings were taken 24 h and 48 h after incubation. Caspofungin was used as positive control at an initial concentration of 5 mg/mL [68–70].

[10] = system: C. albicans; assay: Ergosterol test (plasma membrane mechanism), microdilution; format: cell-based, Candida albicans; settings: for MIC Without ergosterol: absence of ergosterol
Description: (2) Ergosterol Test. The test of the compounds was performed using the microdilution technique, as previously described, in the presence of exogenous ergosterol at 400 μg/mL. Nystatin was used as positive control. The plates were incubated at 35 ± 2°C, and readings were taken at 24 and 48 h.

Row | Molecule | IC50 HL60 ([1]; 72 h) | IC50 ([1]; 72 h) | IC50 ([2]; 72 h) | IC50 HCT116 ([2]; 72 h) | IC50 ([3]; 72 h) | IC50 HEPG2 ([3]; 72 h) | IC50 ([4]; 72 h) | IC50 MRC5 ([4]; 72 h) | MIC/MFC reason C. albicans CBS 562 [5] | MIC/MFC reason C. krusei CBS 573 [6] | IC50 ([1]; Homo sapiens, HL-60, 72 h) | IC50 ([2]; Homo sapiens, HCT-116, 72 h) | IC50 ([3]; Homo sapiens, HepG2, 72 h) | IC50 ([4]; Homo sapiens, MRC5, 72 h) | MIC/MFC reason C. tropicalis CBS 94 [8] | other results
1 | (E)-N-benzyl-3-(3-hydroxy-4-methoxyphenyl)acrylamide [Compound 6] | 17.49 (14.24–421.48) μg/mL | 64.9 µM | 70.3 µM | 18.93 (13.48–26.57) μg/mL | 107 µM | 20.82 (17.45–28.23) μg/mL | 76.5 µM | 20.59 (16.22–26.13) μg/mL | 1 | 1 |  |  |  |  |  | 
2 | COc1cc(/C=C/C(=O)NCC(C)C)ccc1O [Compound 2, (E)-3-(4-hydroxy-3-methoxyphenyl)-N-isobutylacrylamide] |  |  |  |  |  |  |  |  |  |  | > 25 µg/mL and > 100 µM | > 25 µg/mL and > 100 µM | > 25 µg/mL and > 100 µM | > 25 µg/mL and > 100 µM |  | melting point: 75 to 81 °C
3 | (E)-3-(3-hydroxy-4-methoxyphenyl)-N-phenylacrylamide [Compound 5] | 14.28 (9.40–21.70) μg/mL | 50.4 µM | > 88.2 µM | >25 µg/mL | > 88.2 µM | >25 µg/mL | > 88.2 µM | >25 µg/mL |  |  |  |  |  |  |  | 
4 | COc1ccc(/C=C/C(=O)N2CCCC2)cc1O [Compound 3, (E)-3-(3-hydroxy-4-methoxyphenyl)-1-(pyrrolidin-1-yl)prop-2-en-1-one] |  |  |  |  |  |  |  |  |  |  | > 25 µg/mL and > 95.7 µM | > 25 µg/mL and > 95.7 µM | > 25 µg/mL and > 95.7 µM | > 25 µg/mL and > 95.7 µM |  | melting point: 158 to 162 °C
5 | (E)-3-(3-hydroxy-4-methoxyphenyl)-N-(4-methoxybenzyl)acrylamide [Compound 8] |  | 70.3 µM | > 79.8 µM | >25 µg/mL | 64.7 µM | 20.27 (15.94–25.77) μg/mL | 53.2 µM | 16.69 (13.18–21.13) μg/mL | 1 | 1 |  |  |  |  | 1 | MIC ([7]; stated for all Candida strains): 1590 µM
6 | (E)-N-cyclohexyl-3-(3-hydroxy-4-methoxyphenyl)acrylamide [Compound 4] | 18.84 (11.58–27.65) μg/mL | 68.4 µM | > 90.8 µM | >25 µg/mL | > 90.8 µM | >25 µg/mL | > 90.8 µM | >25 µg/mL |  |  |  |  |  |  |  | 
7 | COc1cccc2c1C(=O)c1c(O)c3c(c(O)c1C2=O)C[C@@](O)(C(=O)CO)C[C@@H]3O[C@H]1C[C@H](N)[C@H](O)[C@H](C)O1 [DOX, Doxorubicin, reference compound] |  |  |  |  |  |  |  |  |  |  | 0.03 µg/mL and 60 nM | 0.02 µg/mL and 40 nM | 0.01 µg/mL and 20 nM | 1 µg/mL and 1.84 µM |  | 
8 | (E)-N-(3,4-dimethoxybenzyl)-3-(3-hydroxy-4-methoxyphenyl)acrylamide [Compound 10] | 12.51 (7.41–18.12) μg/mL | 36.5 µM | > 78.9 µM | >25 µg/mL | > 78.9 µM | >25 µg/mL | > 78.9 µM | >25 µg/mL | 1 | 1 |  |  |  |  | 1 | bioactivity category by MIC ([7]; Candida strains): good bioactivity (good bioactivity (MIC between 26 and 125 μg/mL)); MIC Without sorbitol ([9]; C. albicans CBS 562, absence of sorbitol): 31.25 mg/L; MIC With sorbitol ([9]; C. albicans CBS 562, sorbitol 0.8 M): >1000 mg/L; MIC Without ergosterol [10]: 62.25 mg/L
9 | CC[C@H](C)C[C@H](C)CCCCCCCCC(=O)N[C@H]1C[C@@H](O)[C@@H](NCCN)NC(=O)[C@@H]2[C@@H](O)CCN2C(=O)[C@H]([C@H](O)CCN)NC(=O)[C@H]([C@H](O)[C@@H](O)c2ccc(O)cc2)NC(=O)[C@@H]2C[C@@H](O)CN2C(=O)[C@H]([C@@H](C)O)NC1=O [Caspofungin, reference compound] |  |  |  |  |  |  |  |  |  |  |  |  |  |  |  | MIC ([9]; CBS562, read-out: MIC With sorbitol): 1 mg/L (≈ 0.915 µM); MIC ([9]; CBS562, read-out: MIC Without sorbitol): 0.015 mg/L (≈ 0.0137 µM)
10 | C[C@@H]1[C@H](O)[C@@H](C)/C=C/C=C/CC/C=C/C=C/C=C/C=C/C(O[C@H]2O[C@H](C)[C@@H](O)[C@H](N)[C@@H]2O)CC2O[C@](O)(CC(O)C(O)CCC(O)CC(O)CC(O)CC(=O)O[C@H]1C)CC(O)C2C(=O)O (stereo partly drawn) [Nystatin, reference compound] |  |  |  |  |  |  |  |  | 1 | 1 |  |  |  |  | 1 | MFC ([7]; stated for all Candida strains): 4.3 µM (≈ 3.98 µg/mL); MIC ([7]; stated for all Candida strains): 4.3 µM (≈ 3.98 µg/mL); MIC Without ergosterol [10]: 3.75 mg/L (≈ 4.05 µM); MIC With ergosterol ([10]; exogenous ergosterol at 400 μg/mL): 31.25 mg/L (≈ 33.7 µM)
